From patent publication US20100331269A1, “TRITERPENES DERIVATIVES AND USES THEREOF AS ANTITUMOR AGENTS OR ANTI-INFLAMMATORY AGENTS” (priority 2006, published 2010) come the findings set out here.

For assay [1], the system named is A-549 human lung carcinoma cells. The experiment in a line: Cytotoxicity, resazurin metabolism assay, A-549. The format is cell-based. To be noted: 48 h, mean ± SD. The source says: (§1) Human lung carcinoma (A-549), human colon adenocarcinoma (DLD-1), human normal fibroblasts (WS1), mice melanoma (B16-F1), Human glioma (U-251), Human hepatocellular carcinoma (HEP G2), Human prostate adenocarcinoma (PC-3), Human ovary teratocarcinoma metastatic (PA-1), Human breast adenocarcinona metastatic (MDA-MB-231), Human breast adenocarcinoma (MCF-7) and Human malignant melanoma (SK-MEL-2) cell lines were obtained from the American Type Culture Collection (ATCC). All cell lines were cultured in minimum essential medium containing Earle's salts and L-glutamine (Mediatech Cellgro, Va.), to which was added 10% fetal bovine serum (Hyclone), vitamins (1×), penicillin (100 I.U./mL) and streptomycin (100 μg/mL), essential amino acids (1×) and sodium pyruvate (1×) (Mediatech Cellgro, Va.). Cells were kept at 37° C. in a humidified environment containing 5% CO2.
(§2) Exponentially growing cells were plated in 96-well microplates (Costar, Corning Inc.) at a density of 5×10^3 cells per well in 100 μL of culture medium and were allowed to adhere for 16 hours before treatment. Increasing concentrations of each compound in DMSO (Sigma-Aldrich) were then added (100 μL per well) and the cells were incubated for 48 h. […] Cytotoxicity was assessed using resazurin (O'Brien, J. et al., Eur. J. Biochem. 2000, 267, 5421-5426) on an automated 96-well Fluoroskan Ascent F1™ plate reader (Labsystems) using excitation and emission wavelengths of 530 nm and 590 nm, respectively. Fluorescence was proportional to the cellular metabolic activity in each well. Survival percentage was defined as the fluorescence in experimental wells compared to that in control wells after subtraction of blank values. Each experiment was carried out three times in triplicata. IC50 results were expressed as mean±standard deviation.
(§3) The cytotoxicity of triterpenes (1-8) and corresponding glycosides (9-30) (Table 2 below) as well as of germanicane-type triterpenes and glycosides (31-44) (Table 3 below) was assessed towards human cancer (A-549, DLD-1), mouse melanoma (B16-F1) and human normal skin fibroblast (WS1) cell lines using the resazurin reduction test (RTT test) as previously described (O'Brien, J. et al., Eur. J. Biochem. 2000, 267, 5421-5426). Measurements of fluorescence were carried out after 48 continuous hours of contact between compounds and cells. Results presented in Tables 2 and 3 below express the concentration inhibiting 50% of the cell growth (IC50). Known for its activity against A-549, betulinic acid (3) was used as a positive control in this experimentation. […] The cytotoxic activity of some of these compounds was also assessed using the Hoechst DNA assay (Table 4 below).

Assay [2] relates to WS-1 human normal skin fibroblasts. The experiment in a line: Cytotoxicity, resazurin metabolism assay, WS-1. To be noted: 48 h, mean ± SD. The format is cell-based.
Description: as §1, §2, §3
In general terms: The colour change of resazurin is a common sign of viable cells or microbes.

Assay [3] concerns WS-1 cells. The experiment in a line: Cytotoxicity, Hoechst DNA assay, WS-1. To be noted: ± SD. Type of assay: cell-based, human.
Description: as §1, §3

Assay [4] deals with DLD-1 human colorectal adenocarcinoma cells. The experiment in a line: Cytotoxicity, resazurin metabolism assay, DLD-1. Type of assay: cell-based. To be noted: 48 h, mean ± SD.
Description: as §1, §2, §3

Assay [5] has as its system B16-F1 mouse melanoma cells. The experiment in a line: Cytotoxicity, resazurin metabolism assay, B16-F1. The format is cell-based. To be noted: 48 h, mean ± SD.
Description: as §1, §2, §3

Assay [6] has as its system B16-F1 cells. The experiment in a line: Cytotoxicity, Hoechst DNA assay, B16-F1. Type of assay: cell-based, mouse. To be noted: ± SD.
Description: as §1, §3

For assay [7], the system named is A-549 cells. The experiment in a line: Cytotoxicity, Hoechst DNA assay, A-549. The format is cell-based, human. To be noted: ± SD.
Description: as §1, §3

In assay [8] the test system is DLD-1 cells. The experiment in a line: Cytotoxicity, Hoechst DNA assay, DLD-1. The format is cell-based, human. To be noted: ± SD.
Description: as §1, §3

Take `C=C(C)[C@@H]1CC[C@]2(C)CC[C@]3(C)[C@H](CC[C@@H]4[C@@]5(C)CC[C@H](O)C(C)(C)[C@@H]5CC[C@]43C)[C@@H]12` [Compound 1, Lupeol, reference compound]: the half-inhibitory concentration (IC50) (as a rule, the point on the concentration scale where inhibition reaches its midpoint) was 165 ± 8 µM in assay [1]; 63 ± 3 µM in assay [2]; 70 ± 10 µM in assay [3]; 125 ± 6 µM in assay [4]; 104 ± 6 µM in assay [5]; 72 ± 9 µM in assay [6]. Moreover, the results for the IC50 in assay [7] and in assay [8] were 130 ± 20 µM and 102 ± 6 µM, respectively.
Turning to `C=C(C)[C@@H]1CC[C@]2(CO)CC[C@]3(C)[C@H](CC[C@@H]4[C@@]5(C)CC[C@H](O)C(C)(C)[C@@H]5CC[C@]43C)[C@@H]12` [Compound 2, Betulin, reference compound], the half-maximal inhibitory concentration (IC50) in assay [1] is 3.8 ± 0.09 µM; in assay [2] it was 3.58 ± 0.07 µM; in assay [3] it was 5 ± 1 µM; in assay [4], 6.6 ± 0.3 µM; in assay [5], 13.8 ± 0.5 µM; in assay [6] it was 10.3 ± 0.7 µM. For the same compound, the results for the IC50 in assay [7] and in assay [8] were 4.5 ± 0.3 µM and 5.9 ± 0.6 µM, respectively.
On to `C=C(C)[C@@H]1CC[C@]2(COC(C)=O)CC[C@]3(C)[C@H](CC[C@@H]4[C@@]5(C)CC[C@H](OC(C)=O)C(C)(C)[C@@H]5CC[C@]43C)[C@@H]12` [Compound 4, 3,28-Diacetoxybetulin], for which the IC50 in assay [1], in assay [2], in assay [4] and in assay [5] was > 95 µM in each case.
As for `C=C(C)[C@@H]1CC[C@]2(COC(C)=O)CC[C@]3(C)[C@H](CC[C@@H]4[C@@]5(C)CC[C@H](O)C(C)(C)[C@@H]5CC[C@]43C)[C@@H]12` [Compound 5, 28-Acetoxybetulin], the 50% inhibitory concentration (IC50) in assay [1] amounted to 75 ± 7 µM; in assay [2] it was 44 ± 2 µM; in assay [3] it was 47 ± 2 µM; in assay [4], 56 ± 4 µM; in assay [5], 43 ± 2 µM; in assay [6], 35 ± 1 µM. The IC50 in assay [7] came out at 49 ± 7 µM; in assay [8] it was 46 ± 5 µM.
For `C=C(C)[C@@H]1CC[C@]2(C(=O)O)CC[C@]3(C)[C@H](CC[C@@H]4[C@@]5(C)CC[C@H](OC(C)=O)C(C)(C)[C@@H]5CC[C@]43C)[C@@H]12` [Compound 24, 3-Acetoxybetulinic Acid], the half-inhibitory concentration (IC50) in assay [1] came out at 18 ± 2 µM; in assay [2], 57 ± 6 µM; in assay [4], 20 ± 2 µM.
Regarding `C=C(C)[C@@H]1CC[C@]2(CO)CC[C@]3(C)[C@H](CC[C@@H]4[C@@]5(C)CC[C@H](O[C@@H]6O[C@H](CO)[C@H](O)[C@H](O)[C@H]6O)C(C)(C)[C@@H]5CC[C@]43C)[C@@H]12` [Compound 25, 3-O-β-D-Galactopyranoside of Betulin], the 50% inhibitory concentration (IC50) in assay [1], in assay [2] and in assay [4] was > 100 µM each time.
For `C=C(C)[C@@H]1CC[C@]2(CO)CC[C@]3(C)[C@H](CC[C@@H]4[C@@]5(C)CC[C@H](O[C@@H]6OC[C@@H](O)[C@H](O)[C@H]6O)C(C)(C)[C@@H]5CC[C@]43C)[C@@H]12` [Compound 27, 3-O-β-D-Xylopyranoside of Betulin], the IC50 was 90 ± 10 µM in assay [1], > 100 µM in assay [2] and > 100 µM in assay [4].
As to `C=C(C)[C@@H]1CC[C@]2(C(=O)O)CC[C@]3(C)[C@H](CC[C@@H]4[C@@]5(C)CC[C@H](O[C@@H]6O[C@H](CO)[C@H](O)[C@H](O)[C@H]6O)C(C)(C)[C@@H]5CC[C@]43C)[C@@H]12` [Compound 28, 3-O-β-D-Galactopyranoside of Betulinic Acid], the half-maximal inhibitory concentration (IC50) in assay [1], in assay [2] and in assay [4] was > 100 µM each time.
With `CC1(C)CC[C@]23CC[C@]4(C)[C@H](CC[C@@H]5[C@@]6(C)CC[C@H](O)C(C)(C)[C@@H]6CC[C@]54C)[C@H]2[C@H]1OC3` [Compound 31, Allobetulin], the half-inhibitory concentration (IC50) in assay [1], in assay [2] and in assay [4] was > 100 µM throughout.
Take `CC1(C)CC[C@]23CC[C@]4(C)[C@H](CC[C@@H]5[C@@]6(C)CC[C@H](O)C(C)(C)[C@@H]6CC[C@]54C)[C@H]2[C@H]1OC3=O` [Compound 32, 28-Oxyallobetulin]: the IC50 in assay [1] is > 100 µM; in assay [2], 70 ± 9 µM; in assay [4] it was > 100 µM.
For `C[C@@H]1O[C@@H](O[C@H]2CC[C@]3(C)[C@H]4CC[C@@H]5[C@H]6[C@H]7OC[C@@]6(CCC7(C)C)CC[C@@]5(C)[C@]4(C)CC[C@H]3C2(C)C)[C@H](O)[C@H](O)[C@H]1O` [Compound 34, 3-O-α-L-Rhamnopyranoside of Allobetulin], the figures for the IC50 in assay [1], in assay [2] and in assay [4] were > 100 µM, 75 ± 5 µM and > 100 µM, respectively.
`CC1(C)CCC23CCC4(C)C(CCC5C6(C)CCC(OC7OCC(O)C(O)C7O)C(C)(C)C6CCC54C)C2C1OC3` [Compound 35, 3-O-α-D-Arabinopyranoside of Allobetulin]: the IC50 in assay [1], in assay [2] and in assay [4] was > 100 µM throughout.
As for `CC1(C)CC[C@]23CC[C@]4(C)[C@H](CC[C@@H]5[C@@]6(C)CC[C@H](O[C@H]7O[C@H](CO)[C@@H](O)[C@H](O)[C@@H]7O)C(C)(C)[C@@H]6CC[C@]54C)[C@H]2[C@H]1OC3` [Compound 37, 3-O-α-D-Mannopyranoside of Allobetulin], the half-maximal inhibitory concentration (IC50) in assay [1], in assay [2] and in assay [4] was > 100 µM throughout.
`CC1(C)CC[C@]23CC[C@]4(C)[C@H](CC[C@@H]5[C@@]6(C)CC[C@H](O[C@@H]7OC[C@@H](O)[C@H](O)[C@H]7O)C(C)(C)[C@@H]6CC[C@]54C)[C@H]2[C@H]1OC3` [Compound 38, 3-O-β-D-Xylopyranoside of Allobetulin]: the IC50 in assay [1], in assay [2] and in assay [4] was > 100 µM each time.
On to `CC1(C)CCC23CCC4(C)C(CCC5C6(C)CCC(OC7OC(CO)C(O)C(O)C7O)C(C)(C)C6CCC54C)C2C1OC3=O` [Compound 39, 3-O-β-D-Glucopyranoside of 28-Oxyallobetulin], for which the IC50 in assay [1], in assay [2] and in assay [4] was > 100 µM in each case.
Regarding `C[C@@H]1O[C@@H](O[C@H]2CC[C@]3(C)[C@H]4CC[C@@H]5[C@H]6[C@H]7OC(=O)[C@@]6(CCC7(C)C)CC[C@@]5(C)[C@]4(C)CC[C@H]3C2(C)C)[C@H](O)[C@H](O)[C@H]1O` [Compound 40, 3-O-α-L-Rhamnopyranoside of 28-Oxyallobetulin], the IC50 in assay [1], in assay [2] and in assay [4] was > 100 µM in each case.
On to `CC1(C)CC[C@]23CC[C@]4(C)[C@H](CC[C@@H]5[C@@]6(C)CC[C@H](O[C@H]7OC[C@@H](O)[C@@H](O)[C@@H]7O)C(C)(C)[C@@H]6CC[C@]54C)[C@H]2[C@H]1OC3=O` [Compound 41, 3-O-α-D-Arabinopyranoside of 28-oxyallobetulin], for which the IC50 in assay [1], in assay [2] and in assay [4] was > 100 µM in each case.
In the case of `CC1(C)CC[C@]23CC[C@]4(C)[C@H](CC[C@@H]5[C@@]6(C)CC[C@H](O[C@@H]7O[C@H](CO)[C@H](O)[C@H](O)[C@H]7O)C(C)(C)[C@@H]6CC[C@]54C)[C@H]2[C@H]1OC3=O` [Compound 42, 3-O-β-D-Galactopyranoside of 28-Oxyallobetulin], the IC50 in assay [1], in assay [2] and in assay [4] was > 100 µM each time.
Regarding `CC1(C)CC[C@]23CC[C@]4(C)[C@H](CC[C@@H]5[C@@]6(C)CC[C@H](O[C@H]7O[C@H](CO)[C@@H](O)[C@H](O)[C@@H]7O)C(C)(C)[C@@H]6CC[C@]54C)[C@H]2[C@H]1OC3=O` [Compound 43, 3-O-α-D-Mannopyranoside of 28-oxyallobetulin], the 50% inhibitory concentration (IC50) in assay [1], in assay [2] and in assay [4] was > 100 µM in each case.
As for `CC1(C)CC[C@]23CC[C@]4(C)[C@H](CC[C@@H]5[C@@]6(C)CC[C@H](O[C@@H]7OC[C@@H](O)[C@H](O)[C@H]7O)C(C)(C)[C@@H]6CC[C@]54C)[C@H]2[C@H]1OC3=O` [Compound 44, 3-O-β-D-Xylopyranoside of 28-Oxyallobetulin], the IC50 in assay [1], in assay [2] and in assay [4] was > 100 µM each time.
